Assay results as given in patent publication US20060134693A1, “Olfactory cyclic nucleotide-gated channel cell-based assays to identify T1R and T2R taste modulators” (priority 2001, published 2006).
Each block holds one molecule with its values, some of them ahead of it. Peptide text beside a SMILES is read from it.

Experiments:
[1] = target: T1, human T1R2/T1R3 sweet taste GPCR (Homo sapiens, UniProt Q7RTX0+Q8TE23); assay: CNG136 cell line (HEK293-derived, co-expressing human CNG channel and human T1R2/T1R3), FLIPR384 response; assay type: cell-based; settings: 5 mM Aspartame (saturating concentration, the normalization reference); average of 2
T1 construct: expressed in transfected cells; host or cells: CNG136, derived from HEK293
T1 sequence (Q8TE23 20-839): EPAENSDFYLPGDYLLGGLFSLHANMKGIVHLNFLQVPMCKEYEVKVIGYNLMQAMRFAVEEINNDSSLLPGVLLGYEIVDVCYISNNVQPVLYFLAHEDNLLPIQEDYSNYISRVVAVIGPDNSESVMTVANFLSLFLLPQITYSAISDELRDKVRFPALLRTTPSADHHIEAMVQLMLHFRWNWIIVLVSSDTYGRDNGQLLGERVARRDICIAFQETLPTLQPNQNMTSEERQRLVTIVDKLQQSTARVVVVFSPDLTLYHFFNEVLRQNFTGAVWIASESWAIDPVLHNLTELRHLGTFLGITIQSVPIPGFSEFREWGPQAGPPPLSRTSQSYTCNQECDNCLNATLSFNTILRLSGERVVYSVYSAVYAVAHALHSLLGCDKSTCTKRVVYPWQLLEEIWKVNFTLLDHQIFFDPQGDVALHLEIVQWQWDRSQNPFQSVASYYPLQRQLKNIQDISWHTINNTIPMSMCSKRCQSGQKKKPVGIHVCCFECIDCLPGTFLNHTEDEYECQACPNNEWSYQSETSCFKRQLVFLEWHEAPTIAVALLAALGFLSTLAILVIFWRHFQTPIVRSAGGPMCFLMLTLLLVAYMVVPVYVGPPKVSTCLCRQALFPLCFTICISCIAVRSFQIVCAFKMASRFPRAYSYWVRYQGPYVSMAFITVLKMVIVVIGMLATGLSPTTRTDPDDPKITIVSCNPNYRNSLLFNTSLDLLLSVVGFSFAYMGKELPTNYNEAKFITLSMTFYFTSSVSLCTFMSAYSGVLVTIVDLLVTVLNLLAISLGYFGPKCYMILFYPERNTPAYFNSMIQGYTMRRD
T1 sequence (Q7RTX0 21-852): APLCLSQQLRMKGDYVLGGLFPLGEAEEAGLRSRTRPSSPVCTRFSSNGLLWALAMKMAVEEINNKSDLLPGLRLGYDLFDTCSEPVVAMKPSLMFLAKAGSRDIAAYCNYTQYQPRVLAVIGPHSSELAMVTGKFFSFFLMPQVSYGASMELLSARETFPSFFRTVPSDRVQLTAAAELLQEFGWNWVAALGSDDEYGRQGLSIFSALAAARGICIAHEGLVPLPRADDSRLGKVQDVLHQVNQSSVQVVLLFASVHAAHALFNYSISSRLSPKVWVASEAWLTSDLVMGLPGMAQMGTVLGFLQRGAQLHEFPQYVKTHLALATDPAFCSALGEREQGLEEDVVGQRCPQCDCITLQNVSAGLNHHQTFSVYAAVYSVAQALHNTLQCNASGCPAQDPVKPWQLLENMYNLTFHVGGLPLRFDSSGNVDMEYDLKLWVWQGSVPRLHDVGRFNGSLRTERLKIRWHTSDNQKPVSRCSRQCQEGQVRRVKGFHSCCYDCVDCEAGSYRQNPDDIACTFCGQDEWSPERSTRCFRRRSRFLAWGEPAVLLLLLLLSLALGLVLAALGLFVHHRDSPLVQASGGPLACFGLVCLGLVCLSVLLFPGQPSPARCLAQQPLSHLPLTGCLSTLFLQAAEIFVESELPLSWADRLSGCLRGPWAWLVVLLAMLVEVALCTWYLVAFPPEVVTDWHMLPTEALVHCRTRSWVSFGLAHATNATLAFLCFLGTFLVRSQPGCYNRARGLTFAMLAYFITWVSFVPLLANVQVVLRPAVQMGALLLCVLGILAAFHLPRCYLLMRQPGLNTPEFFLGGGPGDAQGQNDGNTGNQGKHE
Description: (§1) Methods: […] This cell line was derived from HEK293 cells. CNG136 was tested with several sweet receptor agonists and modulators including, Compound 6542888, Compound 3069733, and Aspartame. Response to 10 uM of 6542888 and 3069733 and 5 mM Aspartame was measured using a FLIPR384 instrument (Molecular Devices) and is reported in Table I below. Data were normalized to the maximum activity obtained with a saturating concentration of Aspartame (5 mM). Compounds were also tested on control (“Parental CNG”) cells lacking the human sweet GPCR.

[2] = tested on: Parental CNG cells lacking the human sweet GPCR; assay: Control Parental CNG cells lacking the human sweet GPCR, FLIPR384 response; assay type: cell-based; settings: 5 mM Aspartame, average of 2
Description: as §1

[3] = target: T2, human sweet receptor hT1R2/hT1R3 (Homo sapiens, UniProt Q7RTX0+Q8TE23); assay: Isoproterenol-induced calcium influx in HEK-293-oCNGC cells expressing hT1R2/hT1R3; assay type: cell-based; settings: PTX 100 ng/ml for 4 hours; 200 nM isoproterenol; 5 mM Aspartame, 2 mM Cyclamate, 4 mM Saccharin, 0.1 mM Neotame; FIG. 15
T2 construct: host or cells: human embryonic kidney cells (earlier application U.S. Ser. No. 10/770,127)
T2 sequence (Q8TE23 20-839): T1 sequence (Q8TE23 20-839)
T2 sequence (Q7RTX0 21-852): T1 sequence (Q7RTX0 21-852)
Description: FIG. 13 contains the result of an experiment showing that increasing concentrations of sweeteners inhibit the isoproterenol-induced-calcium influx in HEK 293-oCNGC cells expressing the human sweet receptor hT1R2/hT1R3. Delta F/F values were normalized to the fluorescence obtained after stimulation with 200 nM isoproterenol. Each value corresponds to the mean ± SD of a triplicate determination.
Cells were left untreated (control) or treated with PTX for 4 hours at 100 ng/ml prior to the experiment. Cells were then stimulated with 200 nM isoproterenol in the presence or absence of the indicated sweeteners (5 mM Aspartame, 2 mM Cyclamate, 4 mM Saccharin and 0.1 mM Neotame).
(§2) Modulation of oCNG activity by taste receptors is measured in a cell-based assay that detects changes in intracellular calcium (as described in earlier examples). In brief, human embryonic kidney cells stably expressing the OCNC1 and are β1b subunits of oCNGC are transiently or stably transfected with T1R or T2R receptor plasmids. Transfected cells are seeded into 384-well culture plates, and functional expression is allowed to proceed for about 24 to 48 hours. The cells are then incubated with a calcium specific fluorescent dye (Fluo-4 or Fura-2, available from Molecular Probes) that provides for fast, simple and reliable fluorimetric detection of changes in calcium concentration within the cell.
An experiment was conducted to assess the effect of various sweeteners (known to activate the human T1R2/T1R3 sweet receptor) on isoproterenol-induced calcium influx in HEK-293—oCNGC cells that express the human T1R2/T1R3 sweet receptor. As shown by the results in FIG. 13, increasing concentrations of sweetener inhibits isoproterenol-induced calcium influx in these cells. (In the figure, Delta F/F values were normalized to the fluorescence obtained after stimulation with 200 nM isoproterenol and each value corresponds to the means ± SD of a triplicate determination). […]

[4] = tested on: untransfected HEK 293-oCNGC cells; assay: Isoproterenol-induced calcium influx in untransfected HEK 293-oCNGC cells; assay type: cell-based, human; settings: cells not expressing hT1R2/hT1R3; increasing concentrations; 200 nM isoproterenol; FIG. 14
Description: Delta F/F valves were normalized to the fluorescence obtained after stimulation with 200 nM isoproterenol. Each value corresponds to the mean ± SD of a triplicate determination.
as §2
An experiment was conducted to confirm that the effects of the sweeteners on calcium influx requires the expression of the sweet receptor.
In FIG. 14, it is shown that increasing concentrations of the tested sweeteners had no inhibitory effect on isoproterenol-induced calcium influx in untransfected HEK 293—oCNGC cells. Again, Delta F/F values were normalized to the fluorescence obtained after stimulation with 200 nM isoproternol and each value component to the mean ± SD of a triplicate determination).

[5] = target: T3, mouse olfactory receptor, mOREG (Mus musculus, UniProt Q920P2); assay: Calcium dye fluorescence microscopy, HEK-293 cells transfected with mOREG and human olfactory CNG channel subunits; assay type: cell-based; settings: CNG channel dependent and mOREG dependent, FIG. 9
T3 construct: expressed in transfected cells; host or cells: HEK-293, co-transfected with OCNC1[C458W/E581M], OCNC2 and β1b
T3 sequence (Q920P2 1-313): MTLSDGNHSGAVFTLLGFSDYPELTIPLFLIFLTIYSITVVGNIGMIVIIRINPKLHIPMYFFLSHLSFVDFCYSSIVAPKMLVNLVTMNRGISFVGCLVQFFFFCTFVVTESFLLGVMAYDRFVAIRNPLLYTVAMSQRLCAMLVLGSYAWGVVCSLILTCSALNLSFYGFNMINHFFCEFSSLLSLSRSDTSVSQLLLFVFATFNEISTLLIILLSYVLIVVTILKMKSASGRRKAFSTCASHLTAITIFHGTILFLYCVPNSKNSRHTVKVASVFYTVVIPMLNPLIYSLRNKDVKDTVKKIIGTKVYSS
Description: HEK-293 cells were transfected with OCNC1[C458W/E581FM], OCNC2, and β1band a mouse olfactory receptor, mOREG, that is activated by eugenol (Kajiya et al., 2001). Transfected cells were seeded onto multi-well plates. After 48 hours, cells were loaded with a calcium dye for one hour, then washed, and their response to eugenol stimulation was monitored by fluorescence microscopy.

[6] = tested on: human olfactory CNG channel; assay: FLIPR calcium assay, HEK-293 cells stably expressing the human olfactory CNG channel; assay type: cell-based; settings: calcium dye; versus parent cells; FIG. 11
Description: The HEK-293 cells that stably express the human olfactory CNG channel were seeded into FLIPR imaging plates 24 hours prior to the experiment, on plates pre-coated with matrigel. The cells were loaded with a fluorescent calcium dye for one hour, washed and transferred to a FLIPR automated fluorometric plate reader with on-board fluidics. […] Therefore, the cell-based assay is amenable to high throughput applications.

[7] = tested on: activity-enhanced human olfactory CNG channel; assay: FLIPR calcium assay, HEK-293 cells stably expressing the activity-enhanced human olfactory CNG channel; assay type: cell-based; settings: calcium dye; versus parent cells and wild type CNG subunits; FIG. 11
Description: The HEK-293 cells that stably express the activity-enhanced human olfactory CNG channel were seeded into FLIPR imaging plates 24 hours prior to the experiment, on plates pre-coated with matrigel. The cells were loaded with a fluorescent calcium dye for one hour, washed and transferred to a FL]PR automated fluorometric plate reader with on-board fluidics. […] Therefore, the cell-based assay is amenable to high throughput applications, especially with respect to low affinity modulators.

HEK-293-oCNGC cells = assay: Calcium influx in HEK-293-oCNGC cells on isoproterenol addition; assay type: cell-based, human; settings: increasing concentrations; FIG. 12
Description: FIG. 12 contains the results of an experiment showing that increasing concentrations of isoproterenol induce calcium influx in HEK 293-oCNGC cells. Delta F/F corresponds to the maximum fluorescence value obtained after stimulation minus the minimum fluorescence measured before stimulation and normalized to the minimum fluorescence measure before stimulation.
as §2
This accumulation of CAMP induces oCNGC activation, which in turn causes extracellular calcium to flow inside the cells, resulting in a net increase of intracellular calcium concentration and a parallel increase of the fluorescence signal in the cells (FIG. 12).

% Max Activity CNG136 [1]: 100% | inhibition of isoproterenol-induced calcium influx after PTx pretreatment [3]: prevented the inhibition
SMILES: COC(=O)[C@H](Cc1ccccc1)NC(=O)[C@@H](N)CC(=O)O [Aspartame] (H-Asp-Phe-OMe)
% Activity CNG (Parental Cells) [2]: 0% | effect on isoproterenol-induced calcium influx [4]: unaffected

SMILES: C=CCc1ccc(O)c(OC)c1 [Eugenol, eugenol]
fluorescence response [5]: elicited fluorescence increases

SMILES: CC(C)NCC(O)c1ccc(O)c(O)c1 (centres unmarked) [isoproterenol]
fluorescence response [6]: increased fluorescence | fluorescence response [7]: fluorescence similar to that observed with wild type CNG subunits | calcium influx (HEK-293-oCNGC cells): in a dose-dependent manner
